Values of other authors in patent US8916612B2, “Agmatine containing dietary supplements, nutraceuticals, and foods” (priority 2008, dated 2014).

System: mice, rats, dogs, calves and monkeys
Conditions: variable dose ranges and regimens; cited from earlier work

N=C(N)NCCCCN [agmatine]
Toxic effects during or after oral intake: No toxic effects
